# What was measured:
# [1] = target: T1, human CK1δ (Cos 7 cells cotransfected with mouse Per3-GFP) (Homo sapiens, UniProt P48730); assay: CK1 WCA HCS nuclear translocation assay (CK1δ); assay type: cell-based; conditions: inhibition of mPer3-GFP translocation to the nucleus, overnight exposure, read-out: CK1 δ WCA EC50
# T1 construct: His tag of the vector pcDNA4/hisA (only the vector name is printed); expressed in transfected cells; host or cells: Cos 7 cells
# Method: (§1) CK1 WCA HCS Nuclear Translocation Assay.
# (§2) Cos 7 cells were maintained at 37° C. in 5% CO2 in Dulbecco's Modified Eagle Medium (Gibco 11995) supplemented with 10% fetal bovine serum. Log-phase cells were dislodged with 5 min treatment of TrypLE Express (Gibco 12605) and viable cell count was determined with Cedex cell counter. Cells were diluted in DMEM medium to a density of 1.5e5 viable cells/mL in ⅔ of the final volume of final transfected cell mix. Cells were cotransfected with two plasmid DNAs, mouse Per3-GFP (green fluorescent protein) in pd2EGFP-N1 vector and human CKI in pcDNA4/hisA vector (for CK1Epsilon at a ratio of 1:5 respectively; for CK1δ at a ratio of 1:11 respectively), using Lipofectamine 2000 reagent (Invitrogen) according to the manufacturer's recommendations. The transfection mix contained approximately 0.83 μg/mL of DNA and 6 μL/mL of Lipofectamine 2000, in a total of ⅓ of the final transfection volume in Opti-MEM I medium (Invitrogen). After 20 min at rt, the cell mix was combined with the DNA transfection mix, per manufacturer instructions. 50 μL of the transfected cell suspension was dispensed per well by multidrop dispenser into Greiner 384-well Cellcoat (PDL) plates (Greiner #781946).
# (§3) Compounds were solubilized in 100% DMSO, diluted with Opti-MEM I to a 4× concentration before addition to plated cells. After overnight exposure at 37° C. in a CO2 incubator, cells were fixed by the addition of 12% paraformaldehyde (Electron Microscopy Sciences, Hatfield, Pa.) in phosphate-buffered saline (PBS) with 20% sucrose to a final concentration of 4%, and then the cells were incubated for 30 min at rt. Fixative was removed, and cells were washed with PBS and then stained with 0.4 μg/ml Hoechst dye (Invitrogen) in blocking buffer containing 4% goat serum (Vector Labs s-1000) and 0.1% TritonX (Sigma T8787) for 1 h. Cells were washed again with PBS and stored at 4° C. in PBS or scanned immediately with the Cellomics ArrayScan VTI. CKIδ dependent nuclear localization of the GFP-tagged mPer3 protein was quantitated using the Cellomics ArrayScan VTI system utilizing the Cytoplasm to Nucleus translocation bioapplication to calculate the Nuclear-Cytoplasmic Intensity difference. Inhibitors of CK1 δ/ε were tested across a dose response curve to evaluate their ability to inhibit mPer3-GFP translocation to the nucleus. Cells with a total intensity of mPER3:GFP expression equal to or greater than 20,000 are included in analysis.
# [2] = target: T2, human CK1Epsilon (Cos 7 cells cotransfected with mouse Per3-GFP) (Homo sapiens, UniProt P49674); assay: CK1 WCA HCS nuclear translocation assay (CK1ε); assay type: cell-based; conditions: inhibition of mPer3-GFP translocation to the nucleus, overnight exposure, read-out: CK1 ε WCA EC50
# T2 construct: His tag of the vector pcDNA4/hisA (only the vector name is printed); expressed in transfected cells; host or cells: Cos 7 cells
# Method: as §1, §2, §3
# CKIδ wild type = CKIδ wild type (Homo sapiens, UniProt P48730); assay: CK1δ kinase assay (Kinase-Glo); assay type: biochemical; conditions: 10 μM ATP, 2 nM CKIδ, 85 min at 25° C.; read-out: CK1 δ IC50
# Method: (§4) The CK1δ kinase assay was performed in a 40 μl final volume in buffer containing 50 mM Tris, pH 7.5, 10 mM MgCl2, 1 mM dithiothreitol, 100 μg/mL BSA with 10 μM ATP, 2 nM CKIδ wild type, and 42 μM peptide substrate PLSRTLp[…] (Flotow et al., 1990) in the presence of 1 μl of CKIδ inhibitor or 4% DMSO. The reaction was incubated for 85 min at 25° C.; detection was carried out as described for the Kinase-Glo Assay (Promega). Luminescent output was measured on the Perkin Elmer Envision plate reader (PerkinElmer, Waltham, Mass.).
# CKI ε wild type = CKI ε wild type (Homo sapiens, UniProt P49674); assay: CK1ε kinase assay (Kinase-Glo); assay type: biochemical; conditions: 10 μM ATP, 2.5 nM CKI ε, 70 min at 25° C.; read-out: CK1 ε:IC50
# Method: as §4, with “The CK1ε” for “The CK1δ”, “a 40-μl” for “a 40 μl”, “ATP, 2.5” for “ATP, 2”, “nM CKI ε” for “nM CKIδ”, “of CKI ε” for “of CKIδ”, “for 70” for “for 85”
# Sequence of CKI ε wild type (P49674 whole entry): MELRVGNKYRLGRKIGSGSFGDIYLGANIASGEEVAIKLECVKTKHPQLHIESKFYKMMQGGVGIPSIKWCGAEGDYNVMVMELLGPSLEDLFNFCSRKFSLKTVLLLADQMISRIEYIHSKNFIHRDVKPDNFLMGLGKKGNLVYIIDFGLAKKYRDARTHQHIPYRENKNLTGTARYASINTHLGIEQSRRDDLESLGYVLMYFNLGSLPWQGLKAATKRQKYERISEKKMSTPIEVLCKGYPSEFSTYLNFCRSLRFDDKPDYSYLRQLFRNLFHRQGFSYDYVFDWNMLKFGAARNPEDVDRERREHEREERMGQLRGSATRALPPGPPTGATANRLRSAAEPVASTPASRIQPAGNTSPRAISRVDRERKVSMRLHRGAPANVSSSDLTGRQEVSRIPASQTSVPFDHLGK
# T2 sequence (P49674 whole entry): as above
# Sequence of CKIδ wild type (P48730 whole entry): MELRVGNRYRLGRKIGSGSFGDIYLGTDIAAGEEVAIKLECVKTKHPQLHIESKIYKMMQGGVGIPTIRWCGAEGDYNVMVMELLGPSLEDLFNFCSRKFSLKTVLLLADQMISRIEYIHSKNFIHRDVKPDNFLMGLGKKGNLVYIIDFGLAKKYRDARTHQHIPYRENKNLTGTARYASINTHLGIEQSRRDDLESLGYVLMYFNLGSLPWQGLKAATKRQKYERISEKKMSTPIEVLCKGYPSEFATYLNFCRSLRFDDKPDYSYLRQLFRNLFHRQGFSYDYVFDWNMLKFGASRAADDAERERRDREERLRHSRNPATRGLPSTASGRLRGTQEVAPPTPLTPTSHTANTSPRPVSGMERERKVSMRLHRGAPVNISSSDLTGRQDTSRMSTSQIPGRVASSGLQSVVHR
# T1 sequence (P48730 whole entry): as above
SMILES,EC50 [1],EC50 [2],IC50 (CKIδ wild type),IC50 (CKI ε wild type)
"Cn1cc(-c2ccnc3c2CN(C(=O)C2CCOCC2)C3)c(-c2ccc(F)cc2)n1 [Example 19, 4-[3-(4-fluorophenyl)-1-methyl-1H-pyrazol-4-yl]-6-(tetrahydro-2H-pyran-4-ylcarbonyl)-6,7-dihydro-5H-pyrrolo[3,4-b]pyridine]",54.8 nM,566 nM,,
"Cn1cc(-c2ccnc3c2CN(S(=O)(=O)C2CC2)C3)c(-c2ccc(F)cc2)n1 [Example 12, 6-(cyclopropylsulfonyl)-4-[3-(4-fluorophenyl)-1-methyl-1H-pyrazol-4-yl]-6,7-dihydro-5H-pyrrolo[3,4-b]pyridine]",202 nM,882 nM,,
"Cn1cc(-c2ccnc3c2CN(C(=O)CC2CC2)C3)c(-c2ccc(F)cc2)n1 [Example 15, 6-(cyclopropylacetyl)-4-[3-(4-fluorophenyl)-1-methyl-1H-pyrazol-4-yl]-6,7-dihydro-5H-pyrrolo[3,4-b]pyridine]",12.6 nM,75.4 nM,,
"COC(=O)C1(N2Cc3nccc(-c4cn(C)nc4-c4ccc(F)cc4)c3C2=O)CC1 [Example 31, methyl 1-{4-[3-(4-fluorophenyl)-1-methyl-1H-pyrazol-4-yl]-5-oxo-5,7-dihydro-6H-pyrrolo[3,4-b]pyridin-6-yl}cyclopropanecarboxylate]",304 nM,,48.1 nM,187 nM
"CCS(=O)(=O)N1Cc2nccc(-c3cn(C)nc3-c3ccc(F)cc3)c2C1 [Example 11, 6-(ethylsulfonyl)-4-[3-(4-fluorophenyl)-1-methyl-1H-pyrazol-4-yl]-6,7-dihydro-5H-pyrrolo[3,4-b]pyridine]",103 nM,668 nM,,
"COC[C@H]1CCC[C@H]1N1Cc2nccc(-c3cn(C)nc3-c3ccc(F)cc3)c2C1=O [Example 44, 4-[3-(4-fluorophenyl)-1-methyl-1H-pyrazol-4-yl]-6-[(1R,2S)-2-(methoxymethyl)cyclopentyl]-6,7-dihydro-5H-pyrrolo[3,4-b]pyridin-5-one]",437 nM,,70.8 nM,342 nM
"Cn1cc(-c2ccnc3c2CCC3)c(-c2ccc(F)cc2)n1 [Example 23, 4-[3-(4-fluorophenyl)-1-methyl-1H-pyrazol-4-yl]-6,7-dihydro-5H-cyclopenta[b]pyridine]",214 nM,,25.4 nM,157 nM
"CN1Cc2nccc(-c3cn(C)nc3-c3ccc(Cl)cc3)c2C1=O [Example 3, 4-[3-(4-chlorophenyl)-1-methyl-1H-pyrazol-4-yl]-6-methyl-6,7-dihydro-5H-pyrrolo[3,4-b]pyridin-5-one]",78.2 nM,343 nM,,
"COCCCN1Cc2nccc(-c3cn(C)nc3-c3ccc(F)cc3)c2C1=O [Example 29, 4-[3-(4-fluorophenyl)-1-methyl-1H-pyrazol-4-yl]-6-(3-methoxypropyl)-6,7-dihydro-5H-pyrrolo[3,4-b]pyridin-5-one]",217 nM,,26.2 nM,131 nM
"CC(C)OC(=O)CN1Cc2nccc(-c3cn(C)nc3-c3ccc(F)cc3)c2C1=O [Example 49, isopropyl {4-[3-(4-fluorophenyl)-1-methyl-1H-pyrazol-4-yl]-5-oxo-5,7-dihydro-6H-pyrrolo[3,4-b]pyridin-6-yl}acetate]",506 nM,,108 nM,496 nM
"Cn1cc(CCN2Cc3nccc(-c4cn(C)nc4-c4ccc(F)cc4)c3C2=O)cn1 [Example 33, 4-[3-(4-fluorophenyl)-1-methyl-1H-pyrazol-4-yl]-6-[2-(1-methyl-1H-pyrazol-4-yl)ethyl]-6,7-dihydro-5H-pyrrolo[3,4-b]pyridin-5-one]",232 nM,,> 75.5 nM,> 230 nM
"Cn1cc(-c2ccnc3c2C(=O)N(C2CCOCC2)C3)c(-c2ccc(F)cc2)n1 [Example 36, 4-[3-(4-fluorophenyl)-1-methyl-1H-pyrazol-4-yl]-6-(tetrahydro-2H-pyran-4-yl)-6,7-dihydro-5H-pyrrolo[3,4-b]pyridin-5-one]",224 nM,,> 195 nM,> 516 nM
"CNC1CCc2c(-c3cn(C)nc3-c3ccc(F)cc3)ccnc21 (centres unmarked) [Example 25, 4-[3-(4-fluorophenyl)-1-methyl-1H-pyrazol-4-yl]-N-methyl-6,7-dihydro-5H-cyclopenta[b]pyridin-7-amine]",59.8 nM,,17.4 nM,83.7 nM

# Continued by falling EC50 [1], values first:
EC50 [1],EC50 [2],IC50 (CKIδ wild type),IC50 (CKI ε wild type),SMILES
564 nM,,93.2 nM,512 nM,"CN(C)C(=O)CN1Cc2nccc(-c3cn(C)nc3-c3ccc(F)cc3)c2C1=O [Example 43, 2-{4-[3-(4-fluorophenyl)-1-methyl-1H-pyrazol-4-yl]-5-oxo-5,7-dihydro-6H-pyrrolo[3,4-b]pyridin-6-yl}-N,N-dimethylacetamide]"
84.7 nM,361 nM,,,"Cn1cc(-c2ccnc3c2CN(C(=O)Cc2ncccn2)C3)c(-c2ccc(F)cc2)n1 [Example 20, 4-[3-(4-fluorophenyl)-1-methyl-1H-pyrazol-4-yl]-6-(pyrimidin-2-ylacetyl)-6,7-dihydro-5H-pyrrolo[3,4-b]pyridine]"
74.1 nM,,12.9 nM,82.5 nM,"Cn1cc(-c2ccnc3c2C(=O)N(CC2CC2)C3)c(-c2ccc(F)cc2)n1 [Example 37, 6-(cyclopropylmethyl)-4-[3-(4-fluorophenyl)-1-methyl-1H-pyrazol-4-yl]-6,7-dihydro-5H-pyrrolo[3,4-b]pyridin-5-one]"
60.7 nM,,19 nM,127 nM,"Cc1ccc(CN2Cc3nccc(-c4cn(C)nc4-c4ccc(F)cc4)c3C2=O)cn1 [Example 52, 4-[3-(4-fluorophenyl)-1-methyl-1H-pyrazol-4-yl]-6-[(6-methylpyridin-3-yl)methyl]-6,7-dihydro-5H-pyrrolo[3,4-b]pyridin-5-one]"
51.6 nM,275 nM,,,"Cn1cc(-c2ccnc3c2CN(C(=O)OCc2ccccc2)C3)c(-c2ccc(F)cc2)n1 [Example 22, benzyl 4-[3-(4-fluorophenyl)-1-methyl-1H-pyrazol-4-yl]-5,7-dihydro-6H-pyrrolo[3,4-b]pyridine-6-carboxylate]"
47 nM,217 nM,,,"CC1CNCc2nccc(-c3cn(C)nc3-c3ccc(F)cc3)c2O1 (racemic) [Example 8, 9-[3-(4-fluorophenyl)-1-methyl-1H-pyrazol-4-yl]-2-methyl-2,3,4,5-tetrahydropyrido[2,3-f][1,4]oxazepine]"
40.2 nM,150 nM,,,"CC(=O)N1Cc2nccc(-c3cn(C)nc3-c3ccc(F)cc3)c2C1 [Example 14, 6-acetyl-4-[3-(4-fluorophenyl)-1-methyl-1H-pyrazol-4-yl]-6,7-dihydro-5H-pyrrolo[3,4-b]pyridine]"
38.1 nM,218 nM,,,"Cn1cc(-c2ccnc3c2CN(C(=O)C2CCOC2)C3)c(-c2ccc(F)cc2)n1 (centres unmarked) [Example 16, 4-[3-(4-fluorophenyl)-1-methyl-1H-pyrazol-4-yl]-6-(tetrahydrofuran-3-ylcarbonyl)-6,7-dihydro-5H-pyrrolo[3,4-b]pyridine]"

# Source: US8536164B2, “Fused pyridine compounds as casein kinase inhibitors” (Pfizer Inc., priority 2010, dated 2013)
